Experimental data as given in ChEMBL document CHEMBL4270604, “Hedgehog pathway inhibitors of the acylthiourea and acylguanidine class show antitumor activity on colon cancer in vitro and in vivo” (Eur J Med Chem, 2018).
Each block holds one compound with its values, some of them ahead of it.

What was measured:
[1] = Inhibition of hedgehog signaling pathway-mediated differentiation of mouse C3H10T1/2 cells assessed as decrease in SAG-induced ALP activity after 6 days by chemiluminescence-based assay; conditions: C3H 10T1/2, 144 h
[2] = Stability of the compound in mouse deproteinized plasma at 37 degC after 120 mins by HPLC-MS/MS analysis; format: ADME, cell-free; conditions: 2 h
CYP2C9 [3] = target: T1, CYP2C9 (Homo sapiens, UniProt P11712); test: Inhibition of recombinant human CYP2C9 expressed in insect cell microsomes at 1 uM using Luciferin-H as substrate preincubated for 30 mins followed by NADPH addition measured after 30 mins by luminometric method; format: ADME; conditions: probe Luciferin-H
CYP2C19 [4] = target: T2, CYP2C19 (Homo sapiens, UniProt P33261); test: Inhibition of recombinant human CYP2C19 expressed in insect cell microsomes at 5 uM using Luciferin-H EGE as substrate preincubated for 20 mins followed by NADPH addition measured after 30 mins by luminometric method; format: ADME; conditions: probe Luciferin-H EGE
in vitro [5] = conditions: human, Caco-2
Description: Apparent permeability of the compound from apical to basolateral side in human Caco2 cells assessed as drug recovery after 120 mins by LC-MS/MS analysis

CYP3A4 [6] = target: T3, CYP3A4 (Homo sapiens, UniProt P08684); test: Inhibition of recombinant human CYP3A4 expressed in insect cell microsomes at 5 uM using Luciferin-IPA as substrate preincubated for 10 mins followed by NADPH addition measured after 10 mins by luminometric method; format: ADME; conditions: probe Luciferin-IPA
CYP2D6 [7] = target: T4, CYP2D6 (Homo sapiens, UniProt P10635); test: Inhibition of recombinant human CYP2D6 expressed in insect cell microsomes at 5 uM using Luciferin-ME EGE as substrate preincubated for 30 mins followed by NADPH addition measured after 45 mins by luminometric method; format: ADME; conditions: probe Luciferin-ME EGE
CYP1A2 [8] = target: T5, CYP1A2 (Homo sapiens, UniProt P05177); test: Inhibition of recombinant human CYP1A2 expressed in insect cell microsomes at 10 uM using Luciferin-ME as substrate preincubated for 10 mins followed by NADPH addition measured after 30 mins by luminometric method; format: ADME; conditions: probe Luciferin-ME
T5 sequence (P05177 whole entry): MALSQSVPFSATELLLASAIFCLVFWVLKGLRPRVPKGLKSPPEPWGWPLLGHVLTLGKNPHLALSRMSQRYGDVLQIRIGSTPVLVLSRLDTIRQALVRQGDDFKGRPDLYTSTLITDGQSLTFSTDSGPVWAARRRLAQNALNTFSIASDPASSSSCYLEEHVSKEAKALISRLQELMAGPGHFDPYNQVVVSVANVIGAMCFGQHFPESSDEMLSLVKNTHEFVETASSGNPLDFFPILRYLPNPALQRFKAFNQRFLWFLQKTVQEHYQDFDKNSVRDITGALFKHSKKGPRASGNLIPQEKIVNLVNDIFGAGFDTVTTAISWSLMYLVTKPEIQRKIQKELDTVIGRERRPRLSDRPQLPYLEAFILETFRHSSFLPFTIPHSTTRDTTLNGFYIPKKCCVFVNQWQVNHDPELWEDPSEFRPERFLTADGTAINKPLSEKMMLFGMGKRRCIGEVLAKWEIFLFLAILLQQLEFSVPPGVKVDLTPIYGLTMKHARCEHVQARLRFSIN

CYP2C9 [9] = target: T1, CYP2C9; test: Inhibition of recombinant human CYP2C9 expressed in insect cell microsomes at 5 uM using Luciferin-H as substrate preincubated for 30 mins followed by NADPH addition measured after 30 mins by luminometric method; format: ADME; conditions: probe Luciferin-H
CYP2D6 [10] = target: T4, CYP2D6; test: Inhibition of recombinant human CYP2D6 expressed in insect cell microsomes at 10 uM using Luciferin-ME EGE as substrate preincubated for 30 mins followed by NADPH addition measured after 45 mins by luminometric method; format: ADME; conditions: probe Luciferin-ME EGE
Homo sapiens = species: Homo sapiens; test: Substrate activity at recombinant human P-gp in membrane fraction assessed as increase in ATPase activity at 10 uM by luminescent P-gp-Glo assay relative to control
CYP2D6 [11] = target: T4, CYP2D6; test: Inhibition of recombinant human CYP2D6 expressed in insect cell microsomes at 1 uM using Luciferin-ME EGE as substrate preincubated for 30 mins followed by NADPH addition measured after 45 mins by luminometric method; format: ADME; conditions: probe Luciferin-ME EGE
in vitro [12] = conditions: human, Caco-2; remark: listed apart in the source
Description: Apparent permeability of the compound from basolateral to apical side in human Caco2 cells assessed as drug recovery after 120 mins by LC-MS/MS analysis

CYP3A4 [13] = target: T3, CYP3A4; test: Inhibition of recombinant human CYP3A4 expressed in insect cell microsomes at 1 uM using Luciferin-IPA as substrate preincubated for 10 mins followed by NADPH addition measured after 10 mins by luminometric method; format: ADME; conditions: probe Luciferin-IPA
CYP1A2 [14] = target: T5, CYP1A2; test: Inhibition of recombinant human CYP1A2 expressed in insect cell microsomes at 1 uM using Luciferin-ME as substrate preincubated for 10 mins followed by NADPH addition measured after 30 mins by luminometric method; format: ADME; conditions: probe Luciferin-ME
CYP3A4 [15] = target: T3, CYP3A4; test: Inhibition of recombinant human CYP3A4 expressed in insect cell microsomes at 10 uM using Luciferin-IPA as substrate preincubated for 10 mins followed by NADPH addition measured after 10 mins by luminometric method; format: ADME; conditions: probe Luciferin-IPA
CYP1A2 [16] = target: T5, CYP1A2; test: Inhibition of recombinant human CYP1A2 expressed in insect cell microsomes at 5 uM using Luciferin-ME as substrate preincubated for 10 mins followed by NADPH addition measured after 30 mins by luminometric method; format: ADME; conditions: probe Luciferin-ME
HT-1080 = test: Antiproliferative activity against human HT1080 cells after 72 hrs by sulforhodamine-B assay; format: functional, cell-based; conditions: for IC50: HT-1080, 72 h
LS180 = test: Antiproliferative activity against human LS180 cells after 72 hrs by sulforhodamine-B assay; format: functional, cell-based; conditions: for IC50: LS180, 72 h
[17] = Inhibition of hedgehog signaling pathway in mouse Light2 cells stimulated with 100 nM SAG after 30 hrs by Gli-firefly luciferase reporter gene assay
Mus musculus = species: Mus musculus; test: as above
CYP2C19 [18] = target: T2, CYP2C19; test: Inhibition of recombinant human CYP2C19 expressed in insect cell microsomes at 10 uM using Luciferin-H EGE as substrate preincubated for 20 mins followed by NADPH addition measured after 30 mins by luminometric method; format: ADME; conditions: probe Luciferin-H EGE
CYP2C19 [19] = target: T2, CYP2C19; test: Inhibition of recombinant human CYP2C19 expressed in insect cell microsomes at 1 uM using Luciferin-H EGE as substrate preincubated for 20 mins followed by NADPH addition measured after 30 mins by luminometric method; format: ADME; conditions: probe Luciferin-H EGE
[20] = target: T6, Coelenterazine h 2-monooxygenase (Renilla reniformis, UniProt P27652); test: Effect on Renilla reniformis luciferase; format: ADME
T6 sequence (P27652 whole entry): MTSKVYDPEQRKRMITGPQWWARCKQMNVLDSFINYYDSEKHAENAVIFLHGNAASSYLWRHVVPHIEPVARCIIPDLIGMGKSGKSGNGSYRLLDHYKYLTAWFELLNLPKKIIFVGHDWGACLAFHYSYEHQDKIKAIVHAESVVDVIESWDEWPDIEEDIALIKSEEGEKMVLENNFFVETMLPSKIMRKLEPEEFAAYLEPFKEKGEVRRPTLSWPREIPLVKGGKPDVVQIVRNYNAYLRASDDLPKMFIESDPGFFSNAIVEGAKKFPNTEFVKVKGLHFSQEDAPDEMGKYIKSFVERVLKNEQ

CYP2C9 [21] = target: T1, CYP2C9; test: Inhibition of recombinant human CYP2C9 expressed in insect cell microsomes at 10 uM using Luciferin-H as substrate preincubated for 30 mins followed by NADPH addition measured after 30 mins by luminometric method; format: ADME; conditions: probe Luciferin-H
[22] = Drug recovery in mouse plasma at 37 degC after 120 mins by HPLC-MS/MS analysis; format: ADME, cell-free; conditions: read-out: Drug recovery
in vitro [23] = conditions: human, Caco-2; remark: listed apart in the source
Description: Apparent permeability of the compound from apical to basolateral side in human Caco2 cells after 120 mins by LC-MS/MS analysis

[24] = Half life in cryopreserved mouse liver microsomes at 1 uM after 120 mins by HPLC-MS/MS analysis; format: ADME, microsome
[25] = Intrinsic clearance in mouse liver […] per million cells at 1 uM after 120 mins by HPLC-MS/MS analysis; format: ADME; conditions: 2 h
[26] = Intrinsic clearance in mouse liver microsomes at 1 uM after 120 mins by HPLC-MS/MS analysis; format: ADME, microsome; conditions: read-out: CLH

T4 sequence (P10635 whole entry): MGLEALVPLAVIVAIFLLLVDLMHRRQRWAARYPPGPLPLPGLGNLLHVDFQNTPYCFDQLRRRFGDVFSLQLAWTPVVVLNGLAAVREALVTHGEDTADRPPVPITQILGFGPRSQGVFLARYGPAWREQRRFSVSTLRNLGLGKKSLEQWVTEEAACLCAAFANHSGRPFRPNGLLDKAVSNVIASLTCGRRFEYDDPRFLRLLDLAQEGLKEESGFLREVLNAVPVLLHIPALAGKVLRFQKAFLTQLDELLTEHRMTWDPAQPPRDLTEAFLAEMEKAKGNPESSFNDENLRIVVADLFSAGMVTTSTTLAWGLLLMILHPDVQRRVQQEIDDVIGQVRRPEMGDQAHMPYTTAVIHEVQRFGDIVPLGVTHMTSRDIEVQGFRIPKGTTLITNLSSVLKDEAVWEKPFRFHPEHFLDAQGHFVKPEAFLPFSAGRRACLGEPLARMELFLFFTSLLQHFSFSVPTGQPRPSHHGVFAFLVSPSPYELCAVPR
T1 sequence (P11712 whole entry): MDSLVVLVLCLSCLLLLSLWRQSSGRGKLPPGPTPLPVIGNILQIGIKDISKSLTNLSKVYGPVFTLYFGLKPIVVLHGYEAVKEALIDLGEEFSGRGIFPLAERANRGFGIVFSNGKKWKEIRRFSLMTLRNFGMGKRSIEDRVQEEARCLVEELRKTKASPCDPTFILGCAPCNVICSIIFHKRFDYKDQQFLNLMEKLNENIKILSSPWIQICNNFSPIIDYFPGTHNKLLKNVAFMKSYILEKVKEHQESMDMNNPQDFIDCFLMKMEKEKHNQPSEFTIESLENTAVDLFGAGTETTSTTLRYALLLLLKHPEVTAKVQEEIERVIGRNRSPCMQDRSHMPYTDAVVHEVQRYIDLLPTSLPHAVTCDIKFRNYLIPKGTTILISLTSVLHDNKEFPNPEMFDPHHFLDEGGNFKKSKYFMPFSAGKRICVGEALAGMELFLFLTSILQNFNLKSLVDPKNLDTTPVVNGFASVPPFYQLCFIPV
T2 sequence (P33261 whole entry): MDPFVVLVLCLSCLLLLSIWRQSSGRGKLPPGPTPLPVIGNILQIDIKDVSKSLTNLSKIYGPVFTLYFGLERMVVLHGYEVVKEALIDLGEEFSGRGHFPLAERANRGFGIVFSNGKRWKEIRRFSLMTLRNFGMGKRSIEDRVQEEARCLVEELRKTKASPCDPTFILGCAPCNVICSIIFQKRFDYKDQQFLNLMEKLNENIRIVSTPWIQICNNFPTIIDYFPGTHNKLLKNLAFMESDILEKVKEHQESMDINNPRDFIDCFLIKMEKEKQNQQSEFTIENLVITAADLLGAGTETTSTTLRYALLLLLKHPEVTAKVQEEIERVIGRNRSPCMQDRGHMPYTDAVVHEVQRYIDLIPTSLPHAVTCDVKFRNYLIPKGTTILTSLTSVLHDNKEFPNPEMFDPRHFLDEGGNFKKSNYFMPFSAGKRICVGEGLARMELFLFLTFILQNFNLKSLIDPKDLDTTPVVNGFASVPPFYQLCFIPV
T3 sequence (P08684 whole entry): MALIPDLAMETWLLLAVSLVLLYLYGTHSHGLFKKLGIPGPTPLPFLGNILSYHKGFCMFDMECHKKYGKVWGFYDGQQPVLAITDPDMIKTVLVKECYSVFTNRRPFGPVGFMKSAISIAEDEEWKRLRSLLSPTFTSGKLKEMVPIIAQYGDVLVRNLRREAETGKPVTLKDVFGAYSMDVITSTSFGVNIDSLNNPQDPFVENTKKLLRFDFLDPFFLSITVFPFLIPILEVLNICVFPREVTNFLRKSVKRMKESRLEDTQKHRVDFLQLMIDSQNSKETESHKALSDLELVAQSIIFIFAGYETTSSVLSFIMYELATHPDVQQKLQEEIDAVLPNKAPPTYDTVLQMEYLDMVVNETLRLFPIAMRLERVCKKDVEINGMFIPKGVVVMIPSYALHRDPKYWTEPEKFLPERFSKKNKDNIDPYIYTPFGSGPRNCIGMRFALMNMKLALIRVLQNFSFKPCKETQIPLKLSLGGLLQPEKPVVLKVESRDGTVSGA

- IC50 [1]: 670 nM
- Stability [2]: Stable
- inhibition at 0.5 h, 1 µM (CYP2C9 [3]): 63%
- inhibition at 0.5 h, 5 µM (CYP2C19 [4]): 33%
- recovery at 2 h (in vitro [5]): 65.4%
- inhibition at 10 min, 5 µM (CYP3A4 [6]): 7%
- inhibition at 0.75 h, 5 µM (CYP2D6 [7]): 1%
- inhibition at 0.5 h, 10 µM (CYP1A2 [8]): 1%
- inhibition at 0.5 h, 5 µM (CYP2C9 [9]): 69%
- inhibition at 0.75 h, 10 µM (CYP2D6 [10]): 6%
- fold change (FC) (Homo sapiens): 3
- inhibition at 0.75 h, 1 µM (CYP2D6 [11]): 18%
- recovery at 2 h (in vitro [12]): 42.9%
- inhibition at 10 min, 1 µM (CYP3A4 [13]): 4%
- inhibition at 0.5 h, 1 µM (CYP1A2 [14]): 2%
- inhibition at 10 min, 10 µM (CYP3A4 [15]): 15%
- inhibition at 0.5 h, 5 µM (CYP1A2 [16]): 5%
- IC50 (HT-1080): 27000 nM
- IC50 [17]: 100 nM
- inhibition at 0.5 h, 10 µM (CYP2C19 [18]): 27%
- inhibition at 0.5 h, 1 µM (CYP2C19 [19]): 25%
- Activity [20]: Not Active
- inhibition at 0.5 h, 10 µM (CYP2C9 [21]): 71%
- remaining at 2 h [22]: 4.9%
SMILES: COc1cc(C(=O)NC(=S)Nc2ccc(C)c(NC(=O)c3ccc(-c4ccc(F)cc4)cc3)c2)cc(OC)c1OC
- Activity (HT-1080): Dose-dependent effect
- Activity (LS180): Dose-dependent effect
- IC50 (LS180): 7500 nM
- inhibition (Mus musculus): Dose-dependent effect

- fold change (FC) (Homo sapiens): 8.5
SMILES: COc1ccc(CCN(C)CCCC(C#N)(c2ccc(OC)c(OC)c2)C(C)C)cc1OC (stereo not given)

- IC50 [1]: 50 nM
- IC50 (HT-1080): > 100000 nM
- IC50 [17]: 50 nM
- Activity [20]: Not Active
SMILES: CS(=O)(=O)c1ccc(C(=O)Nc2ccc(Cl)c(-c3ccccn3)c2)c(Cl)c1 [VISMODEGIB]
- Activity (HT-1080): Dose-dependent effect
- Activity (LS180): Dose-dependent effect
- IC50 (LS180): 45000 nM
- inhibition (Mus musculus): Dose-dependent effect

- recovery at 2 h (in vitro [5]): 70%
- Papp A→B at 2 h (in vitro [23]): 30.9 ×10⁻⁶ cm/s
SMILES: CC(C)NCC(O)COc1cccc2ccccc12 (stereo not given) [PROPRANOLOL]

- inhibition at 0.5 h, 10 µM (CYP2C19 [18]): 84%
SMILES: Cc1c(C)c2c(c(C)c1O)CCC(C)(COc1ccc(CC3SC(=O)NC3=O)cc1)O2 (stereo not given) [TROGLITAZONE]

- half-life at 1 µM [24]: 4.84 min
- CLH [25]: 477 µL/min
- CLint scaled at 1 µM [26]: 1260 mL/min/kg
SMILES: CCOc1ccc2ccc(=O)oc2c1 [ETHOXYCOUMARIN]

- recovery at 2 h (in vitro [5]): 94.7%
- recovery at 2 h (in vitro [12]): 102%
SMILES: CC(C)NCC(O)COc1ccc(CC(N)=O)cc1 (stereo not given) [ATENOLOL]
